The results in this text go back to patent US20220162548A1, “PRODUCING ISOTHIOCYANATES FROM CALLUS SUSPENSION CULTURES” (PERPETUUM CROPSCIENCE BVBA, priority 2019, published 2022).

The assay has as its system NON-GMO Impala F1 Cabbage (Brassica oleracea L. var. capitata) callus cultures. Put plainly: Elicitation of callus cultures, benzyl isothiocyanate accumulation and callus weight. The assay is classed as cell-based. The following applies: for Concentration of benzyl isothiocyanate / Dry weight / Fresh weight: four weeks of culture. Here is the method:
10 g of calli (fresh weight/vessel) was transferred to the same medium composition in addition to different concentrations of chitosan (200, 400 and 600 mg/L) and salicylic acid (10, 20 and 40 mg/L) as biotic elicitors, in addition to the control treatment without elicitors. After calli was collected, the fresh and dry weights were determined. Dry weight was determined after drying the calli at 45° C. in an oven until a constant weight was obtained. Benzyl Isothiocyanate concentration was also recorded with each treatment. After four weeks of culture, data was documented.
To determine Benzyl Isothiocyanate content, high performance liquid chromatography (HPLC) was performed. The extraction of Benzyl Isothiocyanate was carried out from calli and cells from Erlenmeyer flask culture and single-use ReadyToProcess WAVE Cellbag bioreactor experiments. Samples were homogenized using a glass mortar and pestle (MilliporeSigma, Belgium) containing 70:30 (v:v) MeOH:sterilized water. Extracts were then transferred to glass stoppered Erlenmeyer flasks (DWK Life Sciences) and conditioned in a thermostatic bath (Fisherscientific, Belgium) under constant agitation. For 30 minutes the extraction was carried out at 70° C. and then filtered on Invitrolon PVDF membranes (Polyvinylidene Fluoride) ([…], ThermoFisher Scientific, Belgium) prior to HPLC injection.
Methanolic extracts of the samples were analyzed by HPLC for Benzyl Isothiocyanate concentration using an external standard. HPLC system (Ultimate 3000 Automated System, ThermoFisher Scientific, Belgium) was coupled with UV-Vis detector (UltiMate 3000 Multiple Wavelength Detector, ThermoFisher Scientific, Belgium) and vacuum degasser (UltiMate 3000 SRD-3400 HPLC Degasser, ThermoFisher Scientific, Belgium).
Sample injections of 20 μl were made by an autosampler (UltiMate 3000 WPS-3000 Autosampler, ThermoFisher Scientific, Belgium); the chromatographic separations were performed on C18 Reversed Phase LC columns (Accucore C18 LC Columns, ThermoFisher Scientific, Belgium). Column temperature was maintained at 30° C. and detection wavelength was 253 nm. Optimum efficiency of separation was obtained using methanol (solvent A), and acetonitrile (solvent B) (HPLC grade, Sigma Aldrich, Belgium). The flow rate was 1 ml/minute. The running time for each analysis was 60 minutes, and 10 minutes were required for column cleaning and equilibrium.
The Benzyl Isothiocyanate concentration of the injected samples was calculated as μg/g fresh weight of sample.
Experiments were conducted in a completely randomized design with at least 30 replicates per treatment for the calli experiment and 4 replicates for the cell suspension culture experiments. Data were subjected to statistical analysis by Analysis of Variance (Anova) programme using Duncan's multiple range test as modified by Snedecor and Cochran. Values marked with different letters were considered to be statistically different at p<0.04.

On to `O=C(O)c1ccccc1O` [Salicylic acid], for which, where the note is “salicylic acid 10 mg/L”, the “increase in Benzyl Isothiocyanate accumulation over the control treatment” value amounted to 1.7 times, the “Concentration of benzyl isothiocyanate” value is reported as 2.174 μg/g fresh weight, the Dry weight turned out to be 4.807 g and the Fresh weight stood at 5.985 g. Also, under “salicylic acid 20 mg/L”, the “Concentration of benzyl isothiocyanate” value was determined as 2.039 μg/g fresh weight, the Dry weight is 4.424 g and the Fresh weight is on record as 4.981 g. For the setting “salicylic acid 40 mg/L”, the “Concentration of benzyl isothiocyanate” value is 1.956 μg/g fresh weight, the Dry weight is 5.107 g and the Fresh weight is 5.509 g.
